Inconclusive results and toxic doses are left out. The calls were made as follows: active = survival T/C of 150% or more; inactive = T/C below 125% in these data.
Tested on: P388 leukemia ip, CD2F1 mice, survival T/C
Assay: NCI In Vivo Anticancer Drug Screen. Data for tumor model P388 Leukemia (intraperitoneal) in CD2F1 (CDF1) mice
Settings: endpoint: median survival time, higher = longer survival
In short: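 Mice carrying the transplanted tumor received test compound or vehicle. Survival was recorded in each group, and the value is the treated-group measurement divided by that of the vehicle-treated control group.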

[1] = dose: 100.0 mg/kg/injection, schedule: Q01DX001 (ip), vehicle: Klucel (hydroxypropylcellulose) (HPC)
[2] = dose: 200.0 mg/kg/injection, schedule: Q01DX001 (ip), vehicle: Klucel (hydroxypropylcellulose) (HPC)
[3] = dose: 400.0 mg/kg/injection, schedule: Q01DX001 (ip), vehicle: Klucel (hydroxypropylcellulose) (HPC)
[4] = dose: 12.5 mg/kg/injection, schedule: Q01DX009 (ip), vehicle: saline with Tween-80
[5] = dose: 50.0 mg/kg/injection, schedule: Q04DX003 (ip), vehicle: saline with Tween-80
[6] = dose: 100.0 mg/kg/injection, schedule: Q04DX003 (ip), vehicle: saline with Tween-80
[7] = dose: 50.0 mg/kg/injection, schedule: Q01DX005 (ip), vehicle: saline with Tween-80
[8] = dose: 100.0 mg/kg/injection, schedule: Q01DX005 (ip), vehicle: saline with Tween-80
[9] = dose: 25.0 mg/kg/injection, schedule: Q01DX009 (ip), vehicle: saline with Tween-80
[10] = dose: 50.0 mg/kg/injection, schedule: Q01DX009 (ip), vehicle: saline with Tween-80
[11] = dose: 100.0 mg/kg/injection, schedule: Q01DX009 (ip), vehicle: saline with Tween-80
[12] = dose: 200.0 mg/kg/injection, schedule: Q01DX009 (ip), vehicle: saline with Tween-80
[13] = dose: 200.0 mg/kg/injection, schedule: Q01DX005 (ip), vehicle: saline with Tween-80

Measured: T/C

O=C(NCCCl)N1CCC(CN=c2cc3n(-c4ccc(Cl)cc4)c4ccccc4nc-3cc2Nc2ccc(Cl)cc2)CC1
inactive: dose: 7.5 mg/kg/injection, schedule: Q01DX005 (ip), vehicle: saline with Tween-80 88 % of control | dose: 15.0 mg/kg/injection, schedule: Q01DX005 (ip), vehicle: saline with Tween-80 88 % of control | dose: 120.0 mg/kg/injection, schedule: Q01DX005 (ip), vehicle: saline with Tween-80 94 % of control | dose: 240.0 mg/kg/injection, schedule: Q01DX005 (ip), vehicle: saline with Tween-80 97 % of control

[O-][n+]1cc2ccccc2c2ccccc21
inactive: dose: 100.0 mg/kg/injection, schedule: Q04DX003 (ip), vehicle: saline 100 % of control | dose: 200.0 mg/kg/injection, schedule: Q04DX003 (ip), vehicle: saline 100 % of control | dose: 400.0 mg/kg/injection, schedule: Q04DX003 (ip), vehicle: saline 99 % of control

O=C1Cc2ccccc2N1C(=O)c1ccc(F)cc1
inactive: [1] 102 % of control | [2] 92 % of control | [3] 95 % of control

O=C(CBr)c1ccc(F)cc1
inactive: [4] 113 % of control | dose: 25.0 mg/kg/injection, schedule: Q04DX003 (ip), vehicle: saline with Tween-80 104 % of control | [5] 100 % of control

NC(C(=O)O)C(CC(=O)O)c1ccncc1 (centres undefined)
inactive: [6] 96 % of control | dose: 200.0 mg/kg/injection, schedule: Q04DX003 (ip), vehicle: saline with Tween-80 89 % of control | dose: 400.0 mg/kg/injection, schedule: Q04DX003 (ip), vehicle: saline with Tween-80 98 % of control

O=C(O)CSC(=O)Nc1ccc(N=Nc2ccccc2)cc1
inactive: [7] 102 % of control | [8] 91 % of control

C=C(CN(C)C)C(=O)c1ccc(C(=O)C(=C)CN(C)C)cc1
inactive: dose: 0.78 mg/kg/injection, schedule: Q01DX005 (ip), vehicle: saline 105 % of control | dose: 1.56 mg/kg/injection, schedule: Q01DX005 (ip), vehicle: saline 107 % of control | dose: 3.12 mg/kg/injection, schedule: Q01DX005 (ip), vehicle: saline 108 % of control

COc1cc(C(=O)c2cc3c(cc2C=O)OCO3)cc(OC)c1OC
inactive: dose: 50.0 mg/kg/injection, schedule: Q01DX005 (ip), vehicle: Klucel (hydroxypropylcellulose) (HPC) 95 % of control | dose: 100.0 mg/kg/injection, schedule: Q01DX005 (ip), vehicle: Klucel (hydroxypropylcellulose) (HPC) 90 % of control | dose: 200.0 mg/kg/injection, schedule: Q01DX005 (ip), vehicle: Klucel (hydroxypropylcellulose) (HPC) 99 % of control

CCOC(=O)N1CCC23C=C(OC)C(=O)C=C2C1CC1=C3C(=O)C(OC)=CC1=O (centres undefined)
inactive: dose: 100.0 mg/kg/injection, schedule: Q01DX001 (ip), vehicle: saline 101 % of control | dose: 200.0 mg/kg/injection, schedule: Q01DX001 (ip), vehicle: saline 97 % of control | dose: 400.0 mg/kg/injection, schedule: Q01DX001 (ip), vehicle: saline 105 % of control

NNC(=O)c1ccccc1
inactive: [9] 104 % of control | [10] 113 % of control | [5] 95 % of control | [6] 100 % of control

OC1CC2(CC3(C1)SCCS3)SCCS2 (centres undefined)
inactive: [1] 102 % of control | [2] 99 % of control | [3] 106 % of control

CCOCCSc1ccccc1
inactive: [9] 99 % of control | [10] 103 % of control | [11] 112 % of control | [12] 105 % of control

OCCCCCOCCOCCOCCOCCOCCCCCO
inactive: [7] 101 % of control | [8] 101 % of control | [13] 96 % of control

COc1ccc(N2CCN(/C=C3\Cc4ccc(F)cc4C3=O)CC2)cc1
inactive: dose: 100.0 mg/kg/injection, schedule: Q04DX002 (ip), vehicle: Klucel (hydroxypropylcellulose) (HPC) 103 % of control | dose: 200.0 mg/kg/injection, schedule: Q04DX002 (ip), vehicle: Klucel (hydroxypropylcellulose) (HPC) 99 % of control | dose: 400.0 mg/kg/injection, schedule: Q04DX002 (ip), vehicle: Klucel (hydroxypropylcellulose) (HPC) 95 % of control

Brc1ccc(N=C2N=C(Nc3ccc(Br)cn3)c3ccccc32)nc1
inactive: dose: 12.5 mg/kg/injection, schedule: Q04DX002 (ip), vehicle: saline with Tween-80 100 % of control | dose: 25.0 mg/kg/injection, schedule: Q04DX002 (ip), vehicle: saline with Tween-80 94 % of control | dose: 50.0 mg/kg/injection, schedule: Q04DX002 (ip), vehicle: saline with Tween-80 90 % of control | dose: 200.0 mg/kg/injection, schedule: Q04DX002 (ip), vehicle: saline with Tween-80 91 % of control | dose: 400.0 mg/kg/injection, schedule: Q04DX002 (ip), vehicle: saline with Tween-80 106 % of control

CCOC(=O)Nc1cc(Cl)c2ncn(C(=O)OCC)c2n1
inactive: dose: 50.0 mg/kg/injection, schedule: Q01DX009 (ip), vehicle: Klucel (hydroxypropylcellulose) (HPC) 96 % of control | dose: 100.0 mg/kg/injection, schedule: Q01DX009 (ip), vehicle: Klucel (hydroxypropylcellulose) (HPC) 90 % of control | dose: 200.0 mg/kg/injection, schedule: Q01DX009 (ip), vehicle: Klucel (hydroxypropylcellulose) (HPC) 93 % of control

Cc1ccc(N2CCN(CC(O)COc3cc4c(c5c3CCCC5)CCCC4)CC2)cc1C (centres undefined)
inactive: dose: 100.0 mg/kg/injection, schedule: Q04DX003 (ip), vehicle: Klucel (hydroxypropylcellulose) (HPC) 95 % of control | dose: 200.0 mg/kg/injection, schedule: Q04DX003 (ip), vehicle: Klucel (hydroxypropylcellulose) (HPC) 93 % of control | dose: 400.0 mg/kg/injection, schedule: Q04DX003 (ip), vehicle: Klucel (hydroxypropylcellulose) (HPC) 91 % of control

c1ccc(SC2=C(Sc3ccccc3)CC2)cc1
inactive: [7] 102 % of control | [8] 111 % of control | [13] 102 % of control

CCOC(=O)c1c(C#N)c2ccccc2n1O
inactive: dose: 25.0 mg/kg/injection, schedule: Q01DX001 (ip), vehicle: distilled water + Tween-80 110 % of control | dose: 50.0 mg/kg/injection, schedule: Q01DX001 (ip), vehicle: distilled water + Tween-80 106 % of control | dose: 100.0 mg/kg/injection, schedule: Q01DX001 (ip), vehicle: distilled water + Tween-80 110 % of control | dose: 100.0 mg/kg/injection, schedule: Q01DX001 (ip), vehicle: saline with Tween-80 97 % of control | dose: 400.0 mg/kg/injection, schedule: Q01DX001 (ip), vehicle: saline with Tween-80 99 % of control

Clc1ccccc1N=NN1CCN(c2ccccc2)CC1
inactive: [10] 88 % of control | [11] 102 % of control | [12] 93 % of control

Cn1c(/C=C/CO)c(CO)c2c1C(=O)C=C(N1CC1)C2=O
inactive: dose: 1.5 mg/kg/injection, schedule: Q01DX005 (ip), vehicle: saline 106 % of control | dose: 3.0 mg/kg/injection, schedule: Q01DX005 (ip), vehicle: saline 94 % of control

Nc1nc(N)c2nc(C(=O)c3ccccc3)c(-c3ccccc3)nc2n1
inactive: [10] 92 % of control | [11] 97 % of control | [12] 90 % of control

c1ccc2c(c1)nnn1c3ncccc3nc21
inactive: [4] 108 % of control | [9] 105 % of control | [10] 105 % of control
